By AC50 is commonly meant the concentration at which the activity in the assay is half-maximal.

The target of experiment [1] is Voltage-dependent L-type calcium channel subunit alpha-1C (Homo sapiens, UniProt Q13936). Type of experiment: functional, cell-based.
Experiment [2] deals with T1, 5-hydroxytryptamine receptor 1A (Homo sapiens, UniProt P08908).
T1 sequence (P08908 whole entry): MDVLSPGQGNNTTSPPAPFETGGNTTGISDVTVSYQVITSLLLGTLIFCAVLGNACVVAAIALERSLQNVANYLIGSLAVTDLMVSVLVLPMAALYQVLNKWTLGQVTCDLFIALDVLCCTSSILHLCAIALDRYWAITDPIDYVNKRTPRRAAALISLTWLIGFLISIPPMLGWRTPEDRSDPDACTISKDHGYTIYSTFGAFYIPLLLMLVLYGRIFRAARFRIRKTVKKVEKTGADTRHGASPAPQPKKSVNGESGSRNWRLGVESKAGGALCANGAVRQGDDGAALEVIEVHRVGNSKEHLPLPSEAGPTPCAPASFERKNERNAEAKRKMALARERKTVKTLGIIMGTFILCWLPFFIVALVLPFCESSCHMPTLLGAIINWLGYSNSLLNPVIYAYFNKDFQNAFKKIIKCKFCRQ

Experiment [3] has as its target 3',5'-cyclic-AMP phosphodiesterase 4A (Homo sapiens, UniProt P27815). It counts as functional.
Experiment [4] concerns the target T2, Muscarinic acetylcholine receptor M4 (Homo sapiens, UniProt P08173).
T2 sequence (P08173 whole entry): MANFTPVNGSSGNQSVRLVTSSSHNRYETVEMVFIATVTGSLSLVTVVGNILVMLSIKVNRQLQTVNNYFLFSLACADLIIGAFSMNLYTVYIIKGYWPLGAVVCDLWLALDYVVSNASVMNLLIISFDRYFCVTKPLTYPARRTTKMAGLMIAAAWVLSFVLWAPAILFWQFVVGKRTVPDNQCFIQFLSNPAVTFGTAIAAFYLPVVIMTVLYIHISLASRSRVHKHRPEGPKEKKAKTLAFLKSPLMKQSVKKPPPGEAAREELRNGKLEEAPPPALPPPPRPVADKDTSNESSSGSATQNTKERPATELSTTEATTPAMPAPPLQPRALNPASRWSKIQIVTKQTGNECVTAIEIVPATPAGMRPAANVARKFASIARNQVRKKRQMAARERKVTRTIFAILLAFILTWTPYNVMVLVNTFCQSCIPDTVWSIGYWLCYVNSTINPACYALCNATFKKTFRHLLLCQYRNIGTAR

Experiment [5] deals with T3, D(1A) dopamine receptor (Homo sapiens, UniProt P21728).
T3 sequence (P21728 whole entry): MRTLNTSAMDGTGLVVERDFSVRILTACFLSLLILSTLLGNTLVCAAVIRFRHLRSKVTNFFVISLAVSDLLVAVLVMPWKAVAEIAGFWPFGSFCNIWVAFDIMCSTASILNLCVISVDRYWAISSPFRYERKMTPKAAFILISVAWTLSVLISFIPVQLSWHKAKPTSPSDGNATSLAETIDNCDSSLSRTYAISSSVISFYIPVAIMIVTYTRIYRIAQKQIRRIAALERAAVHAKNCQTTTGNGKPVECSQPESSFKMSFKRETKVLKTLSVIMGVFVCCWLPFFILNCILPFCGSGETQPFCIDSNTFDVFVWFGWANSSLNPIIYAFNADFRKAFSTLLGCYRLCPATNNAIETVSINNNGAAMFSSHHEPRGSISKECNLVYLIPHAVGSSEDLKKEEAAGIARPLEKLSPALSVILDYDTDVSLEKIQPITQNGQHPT
The target of another experiment is T4, Estrogen receptor (Homo sapiens, UniProt P03372).
T4 sequence (P03372 whole entry): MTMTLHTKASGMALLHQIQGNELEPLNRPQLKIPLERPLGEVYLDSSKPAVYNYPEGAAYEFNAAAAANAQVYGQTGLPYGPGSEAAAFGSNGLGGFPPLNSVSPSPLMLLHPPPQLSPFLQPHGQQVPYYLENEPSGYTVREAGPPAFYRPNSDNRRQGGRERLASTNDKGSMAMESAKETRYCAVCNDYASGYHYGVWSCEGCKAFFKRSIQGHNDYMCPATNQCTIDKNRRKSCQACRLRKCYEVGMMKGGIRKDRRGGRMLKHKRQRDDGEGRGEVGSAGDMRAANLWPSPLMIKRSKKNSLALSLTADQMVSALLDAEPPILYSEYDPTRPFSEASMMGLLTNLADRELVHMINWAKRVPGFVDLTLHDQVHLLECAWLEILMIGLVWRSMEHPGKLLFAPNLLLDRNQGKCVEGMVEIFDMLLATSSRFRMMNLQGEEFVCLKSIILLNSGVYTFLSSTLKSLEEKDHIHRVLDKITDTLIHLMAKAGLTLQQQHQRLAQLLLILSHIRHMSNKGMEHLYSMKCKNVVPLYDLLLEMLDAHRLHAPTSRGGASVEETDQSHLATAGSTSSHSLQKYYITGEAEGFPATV

Experiment [6] has as its target T5, Muscarinic acetylcholine receptor M2 (Homo sapiens, UniProt P08172).
T5 sequence (P08172 whole entry): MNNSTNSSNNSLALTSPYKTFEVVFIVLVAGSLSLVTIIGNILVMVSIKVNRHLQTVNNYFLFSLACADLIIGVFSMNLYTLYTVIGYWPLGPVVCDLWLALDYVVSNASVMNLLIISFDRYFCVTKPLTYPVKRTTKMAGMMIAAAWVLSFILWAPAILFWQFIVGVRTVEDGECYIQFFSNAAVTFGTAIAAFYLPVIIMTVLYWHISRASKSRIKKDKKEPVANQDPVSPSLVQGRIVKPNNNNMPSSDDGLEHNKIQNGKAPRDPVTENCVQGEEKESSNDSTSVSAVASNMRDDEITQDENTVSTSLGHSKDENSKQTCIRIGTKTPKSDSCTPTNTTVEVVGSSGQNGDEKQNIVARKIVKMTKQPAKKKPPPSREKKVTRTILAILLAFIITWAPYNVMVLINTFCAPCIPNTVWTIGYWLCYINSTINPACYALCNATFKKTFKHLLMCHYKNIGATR

Experiment [7] deals with T6, Prostaglandin G/H synthase 1 (Homo sapiens, UniProt P23219). Type of experiment: functional.
T6 sequence (P23219 whole entry): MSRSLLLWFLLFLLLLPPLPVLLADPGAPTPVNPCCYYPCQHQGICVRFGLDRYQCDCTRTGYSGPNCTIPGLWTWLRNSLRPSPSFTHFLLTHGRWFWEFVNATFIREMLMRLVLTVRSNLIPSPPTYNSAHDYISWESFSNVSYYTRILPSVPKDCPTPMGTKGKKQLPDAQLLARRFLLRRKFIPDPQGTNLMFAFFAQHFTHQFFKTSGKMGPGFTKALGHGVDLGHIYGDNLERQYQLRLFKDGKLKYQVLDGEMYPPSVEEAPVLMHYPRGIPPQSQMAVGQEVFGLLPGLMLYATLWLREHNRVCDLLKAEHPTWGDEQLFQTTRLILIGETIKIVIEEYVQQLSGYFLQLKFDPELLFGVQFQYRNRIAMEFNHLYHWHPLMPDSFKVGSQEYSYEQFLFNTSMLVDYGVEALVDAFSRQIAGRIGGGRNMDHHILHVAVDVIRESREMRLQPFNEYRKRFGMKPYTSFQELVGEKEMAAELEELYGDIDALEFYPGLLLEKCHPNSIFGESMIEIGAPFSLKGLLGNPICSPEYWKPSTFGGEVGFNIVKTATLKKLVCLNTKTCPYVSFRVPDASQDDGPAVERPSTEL
Experiment [8] deals with T6, Prostaglandin G/H synthase 1. Type of experiment: functional. This is another data set of the same source.
Experiment [9] has as its target Sodium-dependent noradrenaline transporter (Homo sapiens, UniProt P23975).
In a further experiment the target is Mu-type opioid receptor (Homo sapiens, UniProt P35372).
The target of experiment [10] is 5-hydroxytryptamine receptor 2B (Homo sapiens, UniProt P41595). It counts as functional, cell-based.
Chain of 5-hydroxytryptamine receptor 2B (P41595 whole entry): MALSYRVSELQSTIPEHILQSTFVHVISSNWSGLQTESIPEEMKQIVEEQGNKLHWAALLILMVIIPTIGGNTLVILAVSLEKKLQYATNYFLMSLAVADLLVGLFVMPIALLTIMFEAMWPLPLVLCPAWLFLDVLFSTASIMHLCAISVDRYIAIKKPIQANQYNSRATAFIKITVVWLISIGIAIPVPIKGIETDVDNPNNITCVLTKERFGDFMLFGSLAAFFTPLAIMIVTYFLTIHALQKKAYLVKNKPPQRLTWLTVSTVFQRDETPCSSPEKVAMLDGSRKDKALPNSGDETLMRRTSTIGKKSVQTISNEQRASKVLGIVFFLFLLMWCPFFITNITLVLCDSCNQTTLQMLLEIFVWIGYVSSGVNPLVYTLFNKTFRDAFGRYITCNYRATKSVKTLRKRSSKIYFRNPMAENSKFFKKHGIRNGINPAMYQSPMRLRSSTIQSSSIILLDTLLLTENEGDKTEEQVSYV
In experiment [11] the target is T3, D(1A) dopamine receptor. This is another data set of the same source.
The target in another experiment is D(3) dopamine receptor (Homo sapiens, UniProt P35462).
Chain of D(3) dopamine receptor (P35462 whole entry): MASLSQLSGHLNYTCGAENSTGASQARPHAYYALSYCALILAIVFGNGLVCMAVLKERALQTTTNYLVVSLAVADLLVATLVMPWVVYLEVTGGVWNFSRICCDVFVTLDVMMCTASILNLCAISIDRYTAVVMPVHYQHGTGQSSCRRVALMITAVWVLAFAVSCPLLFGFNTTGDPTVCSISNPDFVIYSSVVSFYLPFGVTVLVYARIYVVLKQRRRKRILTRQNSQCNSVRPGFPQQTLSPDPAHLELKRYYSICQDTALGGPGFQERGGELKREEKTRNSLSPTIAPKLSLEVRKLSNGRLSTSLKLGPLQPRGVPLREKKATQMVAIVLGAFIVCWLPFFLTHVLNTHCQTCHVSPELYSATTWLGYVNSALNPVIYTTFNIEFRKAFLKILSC
Also: assay procedure not described here.

Chain of 3',5'-cyclic-AMP phosphodiesterase 4A (P27815 whole entry): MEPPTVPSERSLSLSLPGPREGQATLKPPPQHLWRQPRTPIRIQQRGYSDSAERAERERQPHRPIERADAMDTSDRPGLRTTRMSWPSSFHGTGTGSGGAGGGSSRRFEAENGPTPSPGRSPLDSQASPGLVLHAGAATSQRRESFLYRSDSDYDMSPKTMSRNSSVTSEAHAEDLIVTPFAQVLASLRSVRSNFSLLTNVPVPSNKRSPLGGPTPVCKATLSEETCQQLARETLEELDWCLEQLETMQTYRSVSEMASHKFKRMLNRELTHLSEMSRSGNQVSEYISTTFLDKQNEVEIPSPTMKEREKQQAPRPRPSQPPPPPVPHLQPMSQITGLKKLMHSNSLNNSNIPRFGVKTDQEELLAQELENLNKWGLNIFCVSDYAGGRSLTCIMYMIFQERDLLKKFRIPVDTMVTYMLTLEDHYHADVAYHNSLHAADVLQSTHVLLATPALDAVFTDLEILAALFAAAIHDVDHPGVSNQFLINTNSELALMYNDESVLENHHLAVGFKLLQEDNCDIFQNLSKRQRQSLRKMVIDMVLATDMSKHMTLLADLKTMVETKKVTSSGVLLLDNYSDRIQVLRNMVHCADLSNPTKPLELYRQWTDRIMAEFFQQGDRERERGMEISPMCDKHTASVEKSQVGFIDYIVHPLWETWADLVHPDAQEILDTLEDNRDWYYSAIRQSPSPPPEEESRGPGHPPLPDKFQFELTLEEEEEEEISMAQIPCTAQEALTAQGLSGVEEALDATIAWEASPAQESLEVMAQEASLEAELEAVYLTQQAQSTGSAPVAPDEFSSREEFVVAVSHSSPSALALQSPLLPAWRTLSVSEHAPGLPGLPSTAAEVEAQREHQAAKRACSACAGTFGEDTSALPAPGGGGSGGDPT
Chain of Voltage-dependent L-type calcium channel subunit alpha-1C (Q13936 whole entry): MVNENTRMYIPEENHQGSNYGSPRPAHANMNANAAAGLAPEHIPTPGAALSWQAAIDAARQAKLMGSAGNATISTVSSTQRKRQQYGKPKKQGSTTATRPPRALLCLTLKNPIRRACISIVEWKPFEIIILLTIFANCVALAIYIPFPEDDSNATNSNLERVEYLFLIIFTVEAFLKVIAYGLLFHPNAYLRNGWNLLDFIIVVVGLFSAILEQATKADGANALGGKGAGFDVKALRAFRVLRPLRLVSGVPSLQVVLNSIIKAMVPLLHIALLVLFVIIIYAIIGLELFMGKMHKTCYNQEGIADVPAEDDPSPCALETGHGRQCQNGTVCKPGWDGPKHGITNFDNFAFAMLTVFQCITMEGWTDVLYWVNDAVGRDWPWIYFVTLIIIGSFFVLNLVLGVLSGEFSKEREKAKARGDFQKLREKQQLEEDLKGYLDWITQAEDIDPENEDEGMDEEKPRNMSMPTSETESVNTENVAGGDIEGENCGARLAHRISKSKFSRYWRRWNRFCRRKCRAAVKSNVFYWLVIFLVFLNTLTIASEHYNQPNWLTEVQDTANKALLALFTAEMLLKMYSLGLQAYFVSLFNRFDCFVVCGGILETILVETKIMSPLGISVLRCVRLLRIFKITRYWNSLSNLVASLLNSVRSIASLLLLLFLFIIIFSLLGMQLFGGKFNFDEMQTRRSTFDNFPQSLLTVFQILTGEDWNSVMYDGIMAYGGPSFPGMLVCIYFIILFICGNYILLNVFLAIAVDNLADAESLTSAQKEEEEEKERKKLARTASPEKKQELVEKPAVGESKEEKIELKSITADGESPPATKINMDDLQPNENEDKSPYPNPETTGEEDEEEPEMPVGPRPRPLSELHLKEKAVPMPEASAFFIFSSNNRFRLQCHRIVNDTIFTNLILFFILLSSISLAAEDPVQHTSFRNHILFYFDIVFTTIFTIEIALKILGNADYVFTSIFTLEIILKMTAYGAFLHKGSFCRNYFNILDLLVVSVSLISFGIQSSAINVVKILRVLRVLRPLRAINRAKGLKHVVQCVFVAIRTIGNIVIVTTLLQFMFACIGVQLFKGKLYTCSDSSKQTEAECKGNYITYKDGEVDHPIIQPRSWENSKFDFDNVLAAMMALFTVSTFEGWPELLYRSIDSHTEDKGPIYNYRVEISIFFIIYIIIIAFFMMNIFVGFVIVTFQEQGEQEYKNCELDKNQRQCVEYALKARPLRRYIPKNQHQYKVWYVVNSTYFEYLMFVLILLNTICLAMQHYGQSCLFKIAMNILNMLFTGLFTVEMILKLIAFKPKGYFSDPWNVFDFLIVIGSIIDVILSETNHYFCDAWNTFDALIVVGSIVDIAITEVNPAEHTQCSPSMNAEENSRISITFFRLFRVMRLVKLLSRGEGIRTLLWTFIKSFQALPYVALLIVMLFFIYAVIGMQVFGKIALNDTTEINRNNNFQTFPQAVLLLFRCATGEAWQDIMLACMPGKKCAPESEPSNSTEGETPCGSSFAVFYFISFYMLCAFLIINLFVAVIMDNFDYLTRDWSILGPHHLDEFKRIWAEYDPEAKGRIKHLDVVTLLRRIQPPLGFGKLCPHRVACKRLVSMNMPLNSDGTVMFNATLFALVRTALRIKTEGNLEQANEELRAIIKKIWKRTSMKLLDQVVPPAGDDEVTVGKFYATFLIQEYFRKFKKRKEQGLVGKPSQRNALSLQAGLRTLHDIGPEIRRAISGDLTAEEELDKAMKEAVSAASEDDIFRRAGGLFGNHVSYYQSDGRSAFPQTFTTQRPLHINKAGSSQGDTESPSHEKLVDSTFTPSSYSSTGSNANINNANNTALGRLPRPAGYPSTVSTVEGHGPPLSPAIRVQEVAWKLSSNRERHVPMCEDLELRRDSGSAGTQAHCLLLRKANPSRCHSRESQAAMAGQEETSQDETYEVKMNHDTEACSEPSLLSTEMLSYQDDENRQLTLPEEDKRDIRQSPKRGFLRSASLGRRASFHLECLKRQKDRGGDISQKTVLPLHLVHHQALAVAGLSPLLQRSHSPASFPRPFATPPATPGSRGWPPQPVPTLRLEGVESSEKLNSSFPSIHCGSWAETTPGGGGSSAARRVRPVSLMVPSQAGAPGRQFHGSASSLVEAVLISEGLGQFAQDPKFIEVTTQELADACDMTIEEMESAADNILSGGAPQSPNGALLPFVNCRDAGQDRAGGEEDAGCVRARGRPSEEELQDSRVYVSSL

As for `N#Cc1ccccc1-c1cc(-c2ccccn2)cn(-c2ccccc2)c1=O`, the half-maximal activity concentration (AC50) in experiment [1] is more than 30 µM.
As to `NCCCC(O)(P(=O)(O)O)P(=O)(O)O` [ALENDRONIC ACID], the AC50 in [2] and in experiment [3] was more than 30 µM throughout.
`COC(=O)N[C@@H](C)CNc1nccc(-c2cn(C(C)C)nc2-c2cc(Cl)cc(NS(C)(=O)=O)c2F)n1` [ENCORAFENIB]: the AC50 in [1] was more than 30 µM.
With `COC1=C(OC)C(=O)C(CCCCCCCCCCO)=C(C)C1=O` [IDEBENONE], in experiment [4], the AC50 is more than 10 µM.
On to `O=C1CN=C(c2ccccc2)c2cc(Cl)ccc2N1` [NORDAZEPAM], for which the AC50 in experiment [4] was more than 10 µM.
Still for that read-out and setting: next, `CC(CCc1ccccc1)NC(C)C(O)c1ccc(O)cc1` (stereo not drawn) [NYLIDRIN]: more than 10 µM; `O=C1Nc2ccc(Cl)cc2C(c2ccccc2)=NC1O` (stereo not drawn) [OXAZEPAM]: more than 10 µM.
Take `C[n+]1ccccc1/C=N/O` [PRALIDOXIME]: the AC50 (in experiment [2]; on D(1A) dopamine receptor [5]; on Estrogen receptor; in [6]; in experiment [7]; in [8]) was more than 30 µM each time. The AC50 (in experiment [9]; at Mu-type opioid receptor; in [10]; on D(1A) dopamine receptor [11]; in [3]; on D(3) dopamine receptor) was more than 30 µM in each case.
In turn, `N#C[C@@H]1CCCN1C(=O)CNC12CC3CC(CC(O)(C3)C1)C2` [VILDAGLIPTIN] yielded an AC50 in experiment [4] of more than 10 µM.
In the case of COLISTIN, the AC50 in experiment [2] was more than 30 µM; on D(1A) dopamine receptor [5], more than 30 µM; at Estrogen receptor it was more than 30 µM; in experiment [6], more than 30 µM; in [7], 11.2 µM; in experiment [8] it was more than 30 µM. Further, the AC50 is more than 30 µM in experiment [9]; more than 30 µM at Mu-type opioid receptor; more than 30 µM in [10]; more than 30 µM on D(1A) dopamine receptor [11]; 12 µM in [3]; more than 30 µM at D(3) dopamine receptor.
